In ChEMBL document CHEMBL1201862, “PubChem BioAssay data set” (2004):
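Test compounds were applied to cells in 96-well plates for 48 hours at 5 doses. GI50 is the concentration that inhibits growth by half.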 Calls of active or inactive are those of the source. Cut-off read from the data, not from the text of the source: active = GI50 up to about 1.1 µM and inactive = higher.

What was measured:
Assay in all cases: NCI-60 cell line screen, 48 h
CCRF-CEM = system: CCRF-CEM
K562 = system: K562
RXF 393 = system: RXF 393
OVCAR-8 = system: OVCAR-8
SK-MEL-5 = system: SK-MEL-5
SF-295 = system: SF-295
U-251 = system: U-251
786-0 = system: 786-0
SR = system: SR
A549 = system: A549
SK-MEL-28 = system: SK-MEL-28
TK-10 = system: TK-10
NCI-H522 = system: NCI-H522
SN12C = system: SN12C
PC-3 = system: PC-3
MDA-MB-435 = system: MDA-MB-435
M14 = system: M14
UACC-257 = system: UACC-257
DU-145 = system: DU-145
OVCAR-3 = system: OVCAR-3
HOP-62 = system: HOP-62
SF-539 = system: SF-539
MCF7 = system: MCF7
OVCAR-5 = system: OVCAR-5
SNB-19 = system: SNB-19
UACC-62 = system: UACC-62
SF-268 = system: SF-268
SK-MEL-2 = system: SK-MEL-2
HT-29 = system: HT-29
IGROV-1 = system: IGROV-1
HCT-116 = system: HCT-116
A498 = system: A498
MDA-MB-231 = system: MDA-MB-231
SW-620 = system: SW-620
LOX IMVI = system: LOX IMVI
EKVX = system: EKVX
NCI-H23 = system: NCI-H23
HOP-92 = system: HOP-92
NCI-H226 = system: NCI-H226
MDA-N = system: MDA-N
UO-31 = system: UO-31
CAKI-1 = system: CAKI-1
T47D = system: T47D
COLO 205 = system: COLO 205
NCI/ADR-RES = system: NCI/ADR-RES
OVCAR-4 = system: OVCAR-4
KM12 = system: KM12
Hs-578T = system: Hs-578T
HL-60 = system: HL-60
RPMI-8226 = system: RPMI-8226
MOLT-4 = system: MOLT-4
NCI-H460 = system: NCI-H460
ACHN = system: ACHN
SK-OV-3 = system: SK-OV-3
BT-549 = system: BT-549
HCT-15 = system: HCT-15
Malme-3M = system: Malme-3M

## Cc1cc(C)c2c(=O)n(CN3CC4Nc5ccccc5C4C3)sc2n1 (configuration not stated)
CCRF-CEM
  GI50: 22 µM (inactive)
K562
  GI50: 27.9 µM (inactive)
RXF 393
  GI50: 22.8 µM (inactive)
OVCAR-8
  GI50: 21.2 µM (inactive)
SK-MEL-5
  GI50: 30.2 µM (inactive)
SF-295
  GI50: > 100 µM (inactive)
U-251
  GI50: 31.3 µM (inactive)
786-0
  GI50: 17.2 µM (inactive)
SR
  GI50: 23.6 µM (inactive)
A549
  GI50: 38.5 µM (inactive)
SK-MEL-28
  GI50: 22.1 µM (inactive)
TK-10
  GI50: 19.4 µM (inactive)
NCI-H522
  GI50: 4.19 µM (inactive)
SN12C
  GI50: 30.7 µM (inactive)
PC-3
  GI50: 21.3 µM (inactive)
MDA-MB-435
  GI50: 19.5 µM (inactive)
M14
  GI50: 23.8 µM (inactive)
UACC-257
  GI50: 15.5 µM (inactive)
DU-145
  GI50: 21.1 µM (inactive)
OVCAR-3
  GI50: 33.5 µM (inactive)
HOP-62
  GI50: 35.6 µM (inactive)
SF-539
  GI50: 19.9 µM (inactive)
MCF7
  GI50: 32.1 µM (inactive)
OVCAR-5
  GI50: 21 µM (inactive)
SNB-19
  GI50: 65.9 µM (inactive)
UACC-62
  GI50: 23.8 µM (inactive)
SF-268
  GI50: 14.8 µM (inactive)
SK-MEL-2
  GI50: 22.5 µM (inactive)
HT-29
  GI50: 21.3 µM (inactive)
IGROV-1
  GI50: > 100 µM (inactive)
HCT-116
  GI50: 20.4 µM (inactive)
A498
  GI50: 37.9 µM (inactive)
MDA-MB-231
  GI50: 18.7 µM (inactive)
SW-620
  GI50: 22.8 µM (inactive)
LOX IMVI
  GI50: 21.8 µM (inactive)
EKVX
  GI50: 26.9 µM (inactive)
NCI-H23
  GI50: 22 µM (inactive)
HOP-92
  GI50: 38.5 µM (inactive)
NCI-H226
  GI50: 20.8 µM (inactive)
MDA-N
  GI50: 19.5 µM (inactive)
UO-31
  GI50: 16.3 µM (inactive)
CAKI-1
  GI50: 21 µM (inactive)
T47D
  GI50: 81.8 µM (inactive)
COLO 205
  GI50: 26.1 µM (inactive)
NCI/ADR-RES
  GI50: 35.6 µM (inactive)
OVCAR-4
  GI50: 21 µM (inactive)
KM12
  GI50: > 100 µM (inactive)
Hs-578T
  GI50: 16.6 µM (inactive)
HL-60
  GI50: 25.6 µM (inactive)
RPMI-8226
  GI50: 11.3 µM (inactive)
MOLT-4
  GI50: 29.6 µM (inactive)
NCI-H460
  GI50: 20.9 µM (inactive)
ACHN
  GI50: 17.9 µM (inactive)
SK-OV-3
  GI50: 56 µM (inactive)
BT-549
  GI50: 31.2 µM (inactive)
HCT-15
  GI50: 21 µM
Malme-3M
  GI50: 11.7 µM (inactive)
